The text below walks through data of PMC10001202, “Preparation, Identification and Preliminary Application of the Fenvalerate Monoclonal Antibody in Six Kinds of Dark Tea” (Foods, 2023).

Format in all cases: binding, BALB/c mice
The subject of assay [1] is McAb 2A11. Put plainly: ic-ELISA cross-reactivity, McAb 2A11. On the procedure: (§1) The cross-reactivities with nine permethrin pesticides (deltamethrin, permethrin, cypermethrin, bifenthrin, fenpermethrin, fluobenzene, beta-cyhalothrin, dextrofenthrin, cypermethrin) were obtained, and McAb was determined to clarify the specificity of the monoclonal antibody prepared. The IC50 of the nine permethrin pesticides was measured by the ic-ELISA with the obtained McAb and the coating antigen. The cross-reactivity was calculated with the following Formula (1):Cross-reactivity (CR, %) = IC50 of Fen/IC50 of Fen analogs × 100%(1)

Assay [2] concerns McAb 5G2. The assay can be described thus: ic-ELISA cross-reactivity, McAb 5G2. As for the experimental part: as §1
Assay [3] concerns McAb 1B6. The assay can be described thus: ic-ELISA cross-reactivity, McAb 1B6. On the procedure:
as §1

Setting [4] is: IC50 of Fen/IC50 of analog × 100%.

Converted amounts (≈) assume the structure as drawn.

`Cc1c(COC(=O)[C@@H]2[C@H](/C=C(\Cl)C(F)(F)F)C2(C)C)cccc1-c1ccccc1` (racemic) [Bifenthrin]: the half-maximal inhibitory concentration (IC50) in assay [1], in assay [2] and in assay [3] was >10,000 ng/mL each time.

With `CC1(C)[C@H](C(=O)O[C@H](C#N)c2cccc(Oc3ccccc3)c2)[C@@H]1/C=C(\Cl)C(F)(F)F` (racemic) [Lambda-cyhalothrin], the IC50 in assay [1], in assay [2] and in assay [3] was >10,000 ng/mL in each case.

With `CC1(C)C(C=C(Cl)Cl)C1C(=O)OC(C#N)c1ccc(F)c(Oc2ccccc2)c1` (stereo not drawn) [Cyfluthrin], the half-maximal inhibitory concentration (IC50) in assay [1], in assay [2] and in assay [3] was >10,000 ng/mL throughout.

For `CC1(C)C(C=C(Cl)Cl)C1C(=O)OC(C#N)c1cccc(Oc2ccccc2)c1` (stereo not drawn) [Cypermethrin], the concentration for half-maximal inhibition (IC50) in assay [1], in assay [2] and in assay [3] was >10,000 ng/mL in each case.

Consider `CC(C)=CC1C(C(=O)OCc2cccc(Oc3ccccc3)c2)C1(C)C` [D-Phenothrin], for which the IC50 in assay [1], in assay [2] and in assay [3] was >10,000 ng/mL each time.

Consider `CC1(C)[C@H](C(=O)O[C@H](C#N)c2cccc(Oc3ccccc3)c2)[C@@H]1C=C(Br)Br` [Deltamethrin], for which the IC50 in assay [1], in assay [2] and in assay [3] was >10,000 ng/mL each time.

For the molecule `CC1(C)C(C(=O)OC(C#N)c2cccc(Oc3ccccc3)c2)C1(C)C` (stereo not drawn) [Fenpropathrin], the IC50 in assay [1], in assay [2] and in assay [3] was >10,000 ng/mL throughout.

For the molecule `CC(C)C(C(=O)OC(C#N)c1cccc(Oc2ccccc2)c1)c1ccc(Cl)cc1` (stereo not drawn) [Fenvalerate], the values for the half-maximal inhibitory concentration (IC50) in assay [1], in assay [2] and in assay [3] were 24.29 ng/mL (≈ 0.0578 µM), 21.65 ng/mL (≈ 0.0516 µM) and 36.6 ng/mL (≈ 0.0872 µM), respectively. The CR% in assay [1] (setting [4]), in assay [2] (setting [4]) and in assay [3] (setting [4]) was 100% each time.

`CC1(C)C(C=C(Cl)c2ccc(Cl)cc2)C1C(=O)OC(C#N)c1ccc(F)c(Oc2ccccc2)c1` (stereo not drawn) [Flumethrin]: the IC50 in assay [1], in assay [2] and in assay [3] was >10,000 ng/mL in each case.

Turning to `CC1(C)C(C=C(Cl)Cl)C1C(=O)OCc1cccc(Oc2ccccc2)c1` (stereo not drawn) [Permethrin], the IC50 in assay [1], in assay [2] and in assay [3] was >10,000 ng/mL throughout.
